The values that follow come from patent US20220401464A1, “TREATMENT OF CYR61- AND VEGF-MEDIATED CONDITIONS” (VANDA PHARMACEUTICALS INC., priority 2013, published 2022).

The assay deals with CYR61 gene expression. The assay is described as follows: CYR61 gene expression in ARPE-19/HPV16 cells treated for 24 hours, Affymetrix probe sets. It is filed as cell-based, human. Set-up: amplitude: scale not given here. The settings on record: 10 uM; for Fold (CYR61 Downregulation): versus vehicle. The procedure:
In a study leading to embodiments of the invention, a human retinal pigment epithelial cell line (ARPE-19/HPV16) was separately treated with an anthracycline (doxorubicin or daunorubicin), a statin (simvastatin or lovastatin), or vehicle for 24 hours and gene expression for […] probe sets covering 12,490 genes was generated using an Affymetrix instrument. The effects of these compounds on the expression of CYR61 are shown below in Table 1.

Where a name gives a salt, the structure may show the parent alone.

With `CCC(C)(C)C(=O)O[C@H]1C[C@@H](C)C=C2C=C[C@H](C)[C@H](CC[C@@H]3C[C@@H](O)CC(=O)O3)[C@H]21` [Simvastatin], for the setting “probe 201289_at”, the Rank amounted to 22255, the amplitude was −1.378 and the “Fold (CYR61 Downregulation)” value is −5.428. Further, for the setting “probe 210764_s_at”, the Rank came to 22262, the amplitude is recorded as −1.3931 and the “Fold (CYR61 Downregulation)” value is recorded as −5.591.

On to `COc1cccc2c1C(=O)c1c(O)c3c(c(O)c1C2=O)C[C@@](O)(C(=O)CO)C[C@@H]3O[C@H]1C[C@H](N)[C@H](O)[C@H](C)O1` [Doxorubicin HCl], for which, where the note is “probe 201289_at”, the Rank is 22282, the amplitude is on record as −1.967 and the “Fold (CYR61 Downregulation)” value is −118.5. In addition, under “probe 210764_s_at”, the Rank was 22272, the amplitude was −1.925 and the “Fold (CYR61 Downregulation)” value is −52.26.

For the compound `CC(=O)[C@]1(O)Cc2c(O)c3c(c(O)c2[C@@H](O[C@H]2C[C@H](N)[C@H](O)[C@H](C)O2)C1)C(=O)c1ccccc1C3=O` [Idarubicin HCl], where the note is “probe 201289_at”, the Rank came out at 22273, the amplitude was −1.899 and the “Fold (CYR61 Downregulation)” value was −38.72. Further, under “probe 210764_s_at”, the Rank was 22267, the amplitude is listed as −1.875 and the “Fold (CYR61 Downregulation)” value is recorded as −31.13.

On to `COc1cccc2c1C(=O)c1c(O)c3c(c(O)c1C2=O)C[C@@](O)(C(C)=O)C[C@@H]3O[C@H]1C[C@H](N)[C@H](O)[C@H](C)O1` [Daunorubicin HCl], for which, for the setting “probe 201289_at”, the Rank is 22278, the amplitude is −1.921 and the “Fold (CYR61 Downregulation)” value is −49.81. In addition, under “probe 210764_s_at”, the Rank is 22239, the amplitude is −1.8272 and the “Fold (CYR61 Downregulation)” value is given as −22.15.

In the case of `CC[C@H](C)C(=O)O[C@H]1C[C@@H](C)C=C2C=C[C@H](C)[C@H](CC[C@@H]3C[C@@H](O)CC(=O)O3)[C@H]21` [Lovastatin], under “probe 201289_at”, the Rank is reported as 22271, the amplitude is given as −1.412 and the “Fold (CYR61 Downregulation)” value is −5.799. For the same compound, under “probe 210764_s_at”, the Rank was 22264, the amplitude was −1.297 and the “Fold (CYR61 Downregulation)” value is recorded as −4.687.
